US20260327225A1, “HETEROCYCLIC COMPOUNDS AS TRIGGERING RECEPTOR EXPRESSED ON MYELOID CELLS 2 AGONISTS AND METHODS OF USE” (VIGIL NEUROSCIENCE, INC., priority 2023, published 2026)

Each compound was assayed against T1, human TREM2 (Homo sapiens, UniProt Q9NZC2) (assay: TREM2 agonist potency by cellular phosphorylation of Syk (AlphaLisa) in HEK293T-hTREM2 cells expressing human TREM2 and DAP12). Details: not given.
T1 construct: expressed in transfected cells; host or cells: HEK293T-hTREM2 cells (HEK cell line expressing human TREM2 and DAP12)
T1 sequence (Q9NZC2 19-230): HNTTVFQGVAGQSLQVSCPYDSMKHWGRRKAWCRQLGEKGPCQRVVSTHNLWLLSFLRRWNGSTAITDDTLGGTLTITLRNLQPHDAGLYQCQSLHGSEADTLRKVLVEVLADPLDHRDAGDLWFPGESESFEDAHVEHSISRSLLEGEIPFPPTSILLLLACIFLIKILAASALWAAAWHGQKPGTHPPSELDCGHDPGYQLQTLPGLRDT
T1 sequence (O43914 22-113 partner): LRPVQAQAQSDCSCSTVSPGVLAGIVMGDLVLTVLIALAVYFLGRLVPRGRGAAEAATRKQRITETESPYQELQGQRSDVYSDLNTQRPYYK
Assay type: cell-based
Protocol: In vitro Measurement of Triggering Receptor Expressed on Myeloid Cells 2 activity using cellular phosphorylation of Spleen Tyrosine Kinase (“Syk”) Assays
Measurement of TREM2 agonist potency was done using a HEK cell line expressing human TREM2 and DAP12 (HEK293T-hTREM2 cells). Binding of small molecules to, and activation of, TREM2 increases the phosphorylation of Syk. The resultant levels of Syk phosphorylation are measured using a commercial AlphaLisa reagent kit. To perform the assay, HEK-hTREM2 cells were plated at 14,000 cells per well in a 384 well plate, in 25 μL of complete growth media and incubated at 37° C., 5% CO2 for 20-24 hours.
Prior to the assay, test compounds were diluted in the 384 well plates in assay buffer and allowed to equilibrate for 30 minutes. Growth media was removed from cell plates by inversion on blotting paper, and 25 μL of test articles in assay buffer was added to cells. Cells were incubated for 45 minutes at room temperature. After 45 minutes, assay buffer was removed and 10 μL of lysis buffer was added. Plates were shaken for 20 minutes at 350 RPM at room temperature. After complete lysis, AlphaLisa reagents were added to the lysate, and fluourescence intensity was measured using a Perkin Elmer Envision plate reader. Intensities were used to generate a standard curve, and % activation was calculated. Curve fitting was performed using Prism v9 software, log(agonist) vs response—variable slope (four parameters), and EC50s were calculated from the curve fit.
The results presented in Table B have been generated with the in vitro assay described above. This assay may be used to test any of the compounds described herein to assess and characterize a compound's ability to act as an agonist of TREM2.

`Cc1cc2c(-n3cccc3)nc(N3C[C@@H](C)O[C@@H](c4cnn(C5CC5)c4)C3)nc2nc1C` [Example 67, (2S,6R)-2-(1-cyclopropyl-pyrazol-4-yl)-4-(6,7-dimethyl-4-pyrrol-1-yl-pyrido[2,3-d]pyrimidin-2-yl)-6-methyl-morpholine] was tested, and the EC50 was 100 to 500 nM.

Same assay, conditions: HEK293 cells expressing hTREM2 and DAP12; 45 minutes at room temperature; Syk phosphorylation, AlphaLisa; read-out: hTREM2 EC50

First: Cc1nc2nc(N3C[C@@H](C)O[C@@H](c4cnn(C5CC5)c4)C3)nc(-c3ccc(C#N)cc3F)c2nc1C [Example 91, 4-[2-[(2S,6R)-2-(1-cyclopropylpyrazol-4-yl)-6-methyl-morpholin-4-yl]-6,7-dimethylpteridin-4-yl]-3-fluoro-benzonitrile]
Second: Cc1nc2nc(N3C[C@@H](C)O[C@@H](c4cnn(C5CC5)c4)C3)nc(-c3ccncc3F)c2nc1C [Example 96, (2S,6R)-2-(1-cyclopropylpyrazol-4-yl)-4-[4-(3-fluoro-4-pyridyl)-6,7-dimethylpteridin-2-yl]-6-methyl-morpholine]
The EC50 of the first is lower: < 100 nM for the first, 100 to 500 nM for the second.

Compared with `Cc1nc2nc([C@H]3CCO[C@@H](c4cnn(C5CC5)c4)C3)nc(C34CC(C(F)(F)F)(C3)C4)c2cc1-c1cn(C)nn1` [Example 28, 2-((2R,4S)-2-(1-cyclopropyl-1H-pyrazol-4-yl)tetrahydro-2H-pyran-4-yl)-7-methyl-6-(1-methyl-1H-1,2,3-triazol-4-yl)-4-(3-(trifluoromethyl)-bicyclo[1.1.1]pentan-1-yl)pyrido[2,3-d]pyrimidine], `Cc1nc2nc([C@H]3CCO[C@@H](c4cnn(C5CC5)c4)C3)nc(C34CC(C(F)(F)F)(C3)C4)c2cc1F` [Example 24, 2-[(2R,4S)-2-(1-cyclopropylpyrazol-4-yl)tetrahydropyran-4-yl]-6-fluoro-7-methyl-4-[3-(trifluoromethyl)-1-bicyclo[1.1.1]pentanyl]-pyrido[2,3-d]pyrimidine] is lower in EC50: > 500 nM for the first, < 100 nM for the second.

First: CO[C@H]1CN(c2nc(-c3ccc(F)cc3F)c3nc(C)c(C)nc3n2)C[C@@H]1c1cn(C2CC2)nn1 (stereo in doubt) [Example 134, 2-[3-(1-cyclopropyl-triazol-4-yl)-4-methoxy-pyrrolidin-1-yl]-4-(2,4-difluorophenyl)-6,7-dimethyl-pteridine formic acid]
Second: Cc1nc2nc(C3CCOC(c4ccc5nnc(C)n5c4)C3)nc(-c3ccc(F)cc3F)c2nc1C (stereo not drawn) [Example 99, 4-(2,4-difluorophenyl)-6,7-dimethyl-2-[2-(3-methyl[1,2,4]-triazolo[4,3-a]pyridin-6-yl)tetrahydropyran-4-yl]pteridine]
The EC50 of the first is higher: 100 to 500 nM for the first, < 100 nM for the second. The second is the more potent here.

`Cc1nc2nc([C@H]3CCO[C@@H](c4cnn(C5CC5)c4)C3)nc(C34CC(C(F)(F)F)(C3)C4)c2cc1C#N` [Example 29, 2-[(2R,4S)-2-(1-cyclopropylpyrazol-4-yl)tetrahydropyran-4-yl]-7-methyl-4-[3-(trifluoromethyl)-1-bicyclo[1.1.1]pentanyl]pyrido[2,3-d]pyrimidine-6-carbonitrile] and `Cc1nc2nc([C@H]3CCO[C@@H](c4cnn(C5CC5)c4)C3)nc(C34CC(C(F)(F)F)(C3)C4)c2cc1S(C)(=O)=O` [Example 31, 2-[(2R,4S)-2-(1-cyclopropylpyrazol-4-yl)tetrahydropyran-4-yl]-7-methyl-6-methylsulfonyl-4-[3-(trifluoromethyl)-1-bicyclo[1.1.1]pentanyl]pyrido[2,3-d]pyrimidine] cannot be ordered by EC50: < 100 nM for the first, < 100 nM for the second.

First: Cc1nc2nc(N3CCO[C@@H](c4cnn(C)c4)C3)nc(C3CCCCC3)c2cc1C#N [Example 45, 4-cyclohexyl-7-methyl-2-[(2S)-2-(1-methyl-pyrazol-4-yl)morpholin-4-yl]pyrido[2,3-d]pyrimidine-6-carbonitrile]
Second: Cc1nc2nc(N3C[C@@H](C)O[C@@H](c4cnn(C5CC5)c4)C3)nc(C3CCCCC3)c2cc1C#N [Example 35, 4-cyclohexyl-2-[(2S,6R)-2-(1-cyclopropylpyrazol-4-yl)-6-methyl-morpholin-4-yl]-7-methyl-pyrido[2,3-d]pyrimidine-6-carbonitrile]
The EC50 of the first is higher: 100 to 500 nM for the first, < 100 nM for the second.

`Cc1nc2nc(C3CCOC(c4ccc5nccn5c4)C3)nc(-c3ccc(F)cc3F)c2nc1C` (stereo not drawn) [Example 94, 4-(2,4-difluorophenyl)-2-(2-imidazo[1,2-a]pyridin-6-yltetrahydropyran-4-yl)-6,7-dimethyl-pteridine] and `Cc1nc2nc(C3CCOC(c4ccc5ncn(C)c5c4)C3)nc(-c3ccc(F)cc3F)c2nc1C` (stereo not drawn) [Example 98, 4-(2,4-difluorophenyl)-6,7-dimethyl-2-[2-(3-methylbenzimidazol-5-yl)tetrahydropyran-4-yl]pteridine] cannot be ordered by EC50: < 100 nM for the first, < 100 nM for the second.

`Cc1cc2c(-c3cccs3)nc(N3C[C@@H](C)O[C@@H](c4cnn(C5CC5)c4)C3)nc2nc1C` [Example 69, (2S,6R)-2-(1-cyclopropyl-pyrazol-4-yl)-4-[6,7-dimethyl-4-(2-thienyl)pyrido-[2,3-d]pyrimidin-2-yl]-6-methyl-morpholine] and `Cc1nc2nc(N3C[C@@H](C)O[C@@H](c4cnn(C5CC5)c4)C3)nc(C3CCC3)c2cc1C#N` [Example 42, 4-cyclobutyl-2-((2S,6R)-2-(1-cyclopropyl-1H-pyrazol-4-yl)-6-methylmorpholino)-7-methylpyrido[2,3-d]pyrimidine-6-carbonitrile] fall in the same range of EC50: 100 to 500 nM for the first, 100 to 500 nM for the second.

`Cc1noc(-c2cc3c(C45CC(C(F)(F)F)(C4)C5)nc(N4C[C@@H](C)O[C@@H](c5cnn(C6CC6)c5)C4)nc3nc2C)n1` [Example 22, (2S,6R)-2-(1-cyclopropyl-pyrazol-4-yl)-6-methyl-4-[7-methyl-6-(3-methyl-1,2,4-oxadiazol-5-yl)-4-[3-(trifluoromethyl)-1-bicyclo[1.1.1]pentanyl]-pyrido[2,3-d]pyrimidin-2-yl]morpholine] and `Cc1nc2nc(N3C[C@@H](C)O[C@@H](c4cnn(C(F)F)c4)C3)nc(C34CC(C(F)(F)F)(C3)C4)c2cc1C#N` [Example 66, 2-[(2S,6R)-2-[1-(difluoromethyl)pyrazol-4-yl]-6-methyl-morpholin-4-yl]-7-methyl-4-[3-(trifluoromethyl)-1-bicyclo[1.1.1]pentanyl]pyrido[2,3-d]pyrimidine-6-carbonitrile] cannot be ordered by EC50: < 100 nM for the first, < 100 nM for the second.

`COC(=O)c1cc2c(-c3ccc(F)cc3F)nc([C@H]3CCO[C@@H](c4cnn(C5CC5)c4)C3)nc2nc1C` [Example 8, methyl 2-((2R,4S)-2-(1-cyclopropyl-1H-pyrazol-4-yl)tetrahydro-2H-pyran-4-yl)-4-(2,4-difluorophenyl)-7-methylpyrido[2,3-d]-pyrimidine-6-carboxylate] and `Cc1nc2nc([C@H]3CCO[C@@H](c4cnn(C5CC5)c4)C3)nc(-c3ccc(F)cc3F)c2cc1C#N` [Example 18, 2-[(2R,4S)-2-(1-cyclopropylpyrazol-4-yl)tetrahydropyran-4-yl]-4-(2,4-difluorophenyl)-7-methyl-pyrido[2,3-d]pyrimidine-6-carbonitrile] cannot be ordered by EC50: < 100 nM for the first, < 100 nM for the second.

`Cc1nc2nc([C@H]3CCO[C@@H](c4cnn(C5CC5)c4)C3)nc(C34C5C6C7C5C3C7C64)c2nc1C` (stereo partly drawn) [Example 140, 2-((2R,4S)-2-(1-cyclopropyl-1H-pyrazol-4-yl)tetrahydro-2H-pyran-4-yl)-6,7-dimethyl-4-(cuban-1-yl)pteridine] and `Cc1nc2nc([C@H]3CCO[C@@H](c4cn(C)c(=O)s4)C3)nc(C34CC(C(F)(F)F)(C3)C4)c2nc1C` [Example 108, 5-[(2R,4S)-4-[6,7-dimethyl-4-[3-(trifluoromethyl)-1-bicyclo[1.1.1]pentanyl]pteridin-2-yl]tetrahydropyran-2-yl]-3-methyl-thiazol-2-one] cannot be ordered by EC50: < 100 nM for the first, < 100 nM for the second.
